Assay results taken from PMC7913237, “Small-Molecule Anti-HIV-1 Agents Based on HIV-1 Capsid Proteins” (Biomolecules, 2021).
Where two headings read alike, the source gives them in different places.

Key:
Assay type in all cases: cell-based
[1] = tested on: X4-HIV-1 (NL4-3 strain); experiment: Anti-HIV activity: protection against HIV-1 (NL4-3 strain)-induced cytopathogenicity in MT-4 cells, MTT assay; details: for EC50: 50% protection from HIV-1 (NL4-3 strain)-induced cytopathogenicity in MT-4 cells, 5 days, mean or mean ± SD; for inhibition at 25 µM: Human immunodeficiency virus 1, NL43, MT4, HIV-1 (NL4-3)-induced cytopathogenicity in MT-4 cells, printed in EC50 column; for anti-HIV activity (in words): summary of MTT assay results
Protocol: (§1) For virus preparation, 293T/17 cells (Invitrogen), which are maintained in Dulbecco’s modified Eagle medium (DMEM) containing 10% FBS, in a T-75 flask were transfected with 10 μg of the pNL4-3 construct by the calcium phosphate method. The supernatant was collected 48 h after transfection, passed through a 0.45 μm filter, and stored at −80 °C as a stock virus. Inhibitory activities of test compounds against X4-HIV-1 (NL4-3 strain)-induced cytopathogenicity in MT-4 cells, which are maintained in RPMI-1640 containing 10% FBS, were assessed by the MTT assay. Various concentrations of test compound solutions were added to HIV-1-infected MT-4 cells at multiplicity of infection (MOI) of 0.001, and placed in wells of a 96-well microplate. The test compounds and the reference compounds such as AZT and AMD3100 were diluted by two-fold and five-fold, respectively. After 5 days’ incubation at 37 °C in a CO2 incubator, the number of viable cells was determined by the MTT assay. Cytotoxicities of the test compounds were determined based on reduction of the viability of MT-4 cells by the MTT assay. The p24 antigen content in the culture supernatant was measured using HIV-1 p24 antigen enzyme-linked immunosorbent assay (ELISA) kit according to manufacturer’s instructions (Zeptometrix, Buffalo, NY, USA). A reverse transcriptase inhibitor, AZT, a CXCR4 antagonist, AMD3100 (Sigma Aldrich, St. Louis, MO, USA) were employed as positive control compounds with anti-HIV activity.
(§2) The anti-HIV activity of the synthesized compounds was assessed based on protection against HIV-1 (NL4-3 strain)-induced cytopathogenicity in MT-4 cells by an MTT assay. The cytotoxicity of these compounds was determined based on reduction of the viability of MT-4 cells determined by an MTT assay.

[2] = Cytotoxicity: reduction of the viability of MT-4 cells, MTT assay; details: human, MT-4 cells, 50% reduction of the viability of MT-4 cells
Protocol: as §1, §2

[3] = tested on: HIV-1 (NL4-3 strain) p24 antigen production; experiment: microbe, parasite or virus in culture
Protocol: as §1
These compounds were also evaluated by a different method, using an enzyme-linked immune sorbent assay (ELISA) based on their inhibitory effect against the viral p24 antigen expression in NL4-3 strain-infected MT-4 cells.

[4] = tested on: MT-4 cells; experiment: Cytotoxicity: reduction of the viability of MT-4 cells, MTT assay; details: for CC50: 50% reduction of the viability of MT-4 cells; for cytotoxicity (in words): MT-4 cells MTT assay; for concentration below which no cytotoxicity was exhibited: MT-4 cells
Protocol: as §1, §2

[5] = Human immunodeficiency virus 1, NL43, MT4, 120 h
[6] = Human immunodeficiency virus 1, NL43, MT4, read-out: p24 ELISA EC50, 50% inhibition of viral p24 antigen production in NL4-3 strain-infected MT-4 cells

| SMILES | EC50 [1, 5] [µM] | CC50 at 5 days [2] [µM] | inhibition at 25 µM [1] [%] | anti-HIV activity (in words) [1] | also measured |
| --- | --- | --- | --- | --- | --- |
| c1cc(CN2CCCNCCNCCCNCC2)ccc1CN1CCCNCCNCCCNCC1 [AMD3100, reference compound] | 0.027 ± 0.0077 | > 50 | – | – | EC50 [3, 6]: 0.029 µM |
| Cc1cn([C@H]2C[C@H](N=[N+]=[N-])[C@@H](CO)O2)c(=O)[nH]c1=O [AZT, reference compound] | – | – | – | – | EC50 [1]: 0.024 ± 0.015 µM; CC50 [4]: 79 ± 42 µM; EC50 ([3]; 50% inhibition of viral p24 antigen production in NL4-3 strain-infected MT-4 cells, read-out: p24 ELISA EC50): 0.047 µM |
| CSCC[C@H](C)OC(=O)[C@@H](N)c1ccccc1-c1cccc2ccccc12 [Compound 22] | – | 33 ± 1.5 | 31 ± 8.5 | weak anti-HIV activity | cytotoxicity (in words) [4]: relatively weak cytotoxicity |
| CSCC[C@H](C)OC(=O)[C@@H](N)c1ccccc1-c1ccc2ccccc2c1 [Compound 24] | – | 30 ± 2 | 40 ± 4.6 | weak anti-HIV activity | cytotoxicity (in words) [4]: relatively weak cytotoxicity |
| CSCC[C@H](C)OC(=O)[C@@H](N)c1ccccc1-c1coc2ccccc12 [Compound 27] | – | 34 | 11 | weak anti-HIV activity | cytotoxicity (in words) [4]: relatively weak cytotoxicity |
| CSCC[C@H](C)OC(=O)[C@@H](N)c1ccccc1-c1csc2ccccc12 [Compound 28] | – | 45 | 31 | weak anti-HIV activity | cytotoxicity (in words) [4]: relatively weak cytotoxicity |
| COCC[C@H](C)OC(=O)[C@@H](N)c1ccccc1-c1c[nH]c2ccccc12 [Compound 30] | 26 ± 2.9 | > 50 | – | weak anti-HIV activity | concentration below which no cytotoxicity was exhibited [4]: ≥ 50 µM |
| C[C@@H](CCSC(C)(C)C)OC(=O)[C@@H](N)c1ccccc1-c1c[nH]c2ccccc12 [Compound 34] | 12 | 17 | – | – | – |
| CC(C)SCC[C@H](C)OC(=O)[C@@H](N)c1ccccc1-c1c[nH]c2ccccc12 [Compound 35] | 10 | 18 | – | – | – |
| C[C@@H](CCSc1ccccc1)OC(=O)[C@@H](N)c1ccccc1-c1c[nH]c2ccccc12 [Compound 36] | 11 | 17 | – | – | – |
| C[C@@H](CCS(C)(=O)=O)OC(=O)[C@@H](N)c1ccccc1-c1c[nH]c2ccccc12 [Compound 38] | – | > 50 | 34 | weak anti-HIV activity | concentration below which no cytotoxicity was exhibited [4]: ≥ 50 µM |
| CSCC[C@H](C)OC(=O)[C@@H](N)c1ccccc1-c1c[nH]c2ccccc12 [MKN-1 (1)] | – | – | – | high anti-HIV activity | EC50 [1]: 4.5 ± 2.3 µM; CC50 [4]: 26 ± 8.8 µM; EC50 ([3]; read-out: p24 ELISA EC50, 50% inhibition of viral p24 antigen production in NL4-3 strain-infected MT-4 cells): 8.5 µM |
| CSCC[C@H](C)OC(=O)[C@@H](N)c1ccccc1-c1c[nH]c2ccccc12 [MKN-1A (1A)] | 8 | 38 | – | significant anti-HIV activity | EC50 [3, 6]: 14 µM |
| CSCC[C@@H](C)OC(=O)[C@@H](N)c1ccccc1-c1c[nH]c2ccccc12 [MKN-1B (1B)] | 24 | 37 | – | moderate anti-HIV activity | EC50 [3, 6]: 22 µM |
